Experimental findings from PMC10690091 (Cancer Research, 2023) are described below.

One assay deals with ST3632 ESR1wt PDX. Nature of the assay: Efficacy in ST3632 PDX model. It counts as in vivo, mice. Particulars: oral camizestrant 10 mg/kg daily, palbociclib 50 mg/kg daily, abemaciclib 50 mg/kg daily.
The subject of assay [1] is ER transcriptional activity. The assay is described as follows: RNA-seq ER-regulated gene expression in MCF7 and CAMA-1 cells. The class given is cell-based, human. Particulars: 100 nmol/L + 1 nmol/L estradiol, 24 hours. The protocol:
MCF7 and CAMA-1 cells were seeded into 6-well microplates in phenol red-free RPMI-1640 medium (Invitrogen) containing 2 mmol/L L-glutamine and 5% (volume/volume, v/v) charcoal-stripped FBS (Sigma). […] Samples were harvested in 1 mL of QIAzol lysis buffer and snap-frozen. Snap-frozen tissue from PDX studies was homogenized and resuspended in QIAzol lysis buffer. RNA was extracted using RNeasy 96 QIAcube HT total RNA Cell with DNAse treatment, and samples randomized over 96-well plates. RNA was quantified using the Qubit RNA BR kit (Q10213 Invitrogen), per the manufacturer's instructions.
[…], RNA integrity was analyzed on a TapeStation 4200 using the RNA 6000 Nano Kit (5067 1511, Agilent), according to the manufacturers’ instructions. The Illumina Truseq stranded mRNA library was generated by the Cancer Research UK Cambridge Institute Genomic core facility, and sequencing of cell lines was performed on the Illumina Hiseq4000 platform, providing single-end 50 base pair reads and around 20 million reads per sample. PDX samples were sequenced using Illumina NovaSeq600, providing paired-end 100 base pair reads and around 34 million reads per sample.
Quality control and gene expression quantification of RNA sequencing (RNA-seq) were performed using the RNA-seq pipeline implemented in bcbio-nextgen (https://bcbio-nextgen.readthedocs.org/en/latest/). Reads were aligned to the University of California (Santa Cruz, CA) Homo sapiens GRCh38 genome build, augmented with transcript information from Ensembl release 86 using HiSat2 ([31]). Alignments were evaluated for evenness of coverage, ribosomal RNA content, genomic context of alignments, and complexity, using a combination of FastQC, Qualimap, and custom computational tools ([32]). Transcripts per million measurements per isoform were generated by quasi-alignment using Salmon and were used to estimate the abundance of genes ([33]). The aggregated gene counts were used for differential gene expression analyses using DESeq2 ([34]).

The test system of a further assay is CAMA-1 cells. The assay is described as follows: Sytox Green proliferation assay, CAMA-1. It counts as cell-based, human. Particulars: 7-day proliferation. The protocol: MCF7 and CAMA-1 cells were seeded into 96-well microplates in phenol red-free RPMI-1640 medium containing 2 mmol/L L-glutamine and 5% (v/v) charcoal-stripped FBS at 4×10^3 and 8×10^3 cells/well, based on the doubling time of each cell line. Plates were incubated for 24 hours (37°C; 5% CO2) and a 10-point concentration range of selected compounds was dispensed onto the cells. Dimethyl sulfoxide (DMSO) was dispensed into control wells to give a 0.1% final concentration. One plate was untreated, as a day 0 control. […] were counted at days 0 and 7 (or day 6 for Y537S ESR1m MCF7 cells) using Sytox Green nucleic assay stain (180 nmol/L per well). Green (dead) cells were counted at days 0 and 7 using an Acumen Explorer (TTP Labtech) or Cellinsight imager (Thermo Fisher Scientific). Saponin 0.045% (weight/volume) was added to permeabilize the cells overnight, permitting total cell count. The number of live cells was calculated by subtracting dead cells from the total cell count, and curve-fitted using GraphPad Prism. Average cell counts from the day 0 plate were used to determine 0% cell growth. A dose–response curve was plotted using non-linear regression to determine the IC50 and bottom-of-curve values. Viability assay methods are described in Supplementary Methods.

For assay [2], the target named is T1, ER in Ishikawa endometrial cancer cell line (Homo sapiens, UniProt P03372).
T1 sequence (P03372 1-595): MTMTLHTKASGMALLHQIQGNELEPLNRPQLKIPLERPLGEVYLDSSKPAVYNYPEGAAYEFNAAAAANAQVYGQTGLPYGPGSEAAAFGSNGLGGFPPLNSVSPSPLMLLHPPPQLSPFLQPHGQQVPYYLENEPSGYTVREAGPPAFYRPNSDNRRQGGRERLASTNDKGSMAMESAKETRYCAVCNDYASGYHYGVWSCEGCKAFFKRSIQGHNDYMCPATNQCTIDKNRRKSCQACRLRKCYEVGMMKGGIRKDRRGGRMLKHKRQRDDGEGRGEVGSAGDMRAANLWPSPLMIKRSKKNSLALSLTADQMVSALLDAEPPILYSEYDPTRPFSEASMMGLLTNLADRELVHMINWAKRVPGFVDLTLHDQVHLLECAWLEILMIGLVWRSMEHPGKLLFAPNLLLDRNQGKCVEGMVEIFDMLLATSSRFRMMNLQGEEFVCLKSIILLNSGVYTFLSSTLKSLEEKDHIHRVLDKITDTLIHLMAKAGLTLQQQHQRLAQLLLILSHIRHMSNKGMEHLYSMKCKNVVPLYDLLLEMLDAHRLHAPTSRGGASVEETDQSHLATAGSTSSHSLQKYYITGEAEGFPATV
The assay is described as follows: ER degradation and agonism (PgR expression) in Ishikawa cells. It counts as cell-based. The method, then:
Cells were seeded into 12-well tissue culture-treated plates (0.5×10^6 cells/well) in phenol red-free RPMI medium containing 5% (v/v) charcoal-stripped FBS.
Cell lysates were loaded on NuPAGE 4% to 12% Bis-Tris Midi Protein Gels, transferred to nitrocellulose membranes and immunoblotted with anti-ER antibody (clone SP1, Thermo Fisher Scientific). To detect ER agonism, Ishikawa cells were incubated in media containing 5% (v/v) double charcoal-stripped FBS, achieved by stripping FBS using activated charcoal (C9157, Sigma). Blots were probed with anti-PgR antibody (clone 636, Dako) then horseradish peroxidase secondary antibody (anti-mouse, 7076 Cell Signaling Technology or anti-rabbit, 7070 Cell Signaling Technology). Protein levels were measured on the G-box using Pierce West Dura and West Femto chemiluminescent reagents and Syngene software.

For the next assay, the system named is ST1799/HI/PBR PDX. The assay is described as follows: Efficacy in palbociclib-resistant ST1799/HI/PBR PDX model. The class given is in vivo, mice. Particulars: camizestrant 10 mg/kg daily, palbociclib 50 mg/kg, abemaciclib 50 mg/kg, capivasertib 130 mg/kg, 40 days. The method, then: For all PDX models, tumors were measured twice weekly; changes in tumor volume and growth inhibition were determined by bilateral Vernier caliper measurement (length x width). Length was the longest diameter across the tumor and width the corresponding perpendicular.
For efficacy studies, animals were randomized into treatment groups and dosing started once tumor volume reached 150–300 mm^3. Details of efficacy studies, and group sizes and treatments are described in corresponding figure legends. PDX models in Fig. 6 and Supplementary Fig. S1 were part of the multi-arm study (with arms irrelevant to this publication) with common control monotherapy arms (e.g., the vehicle-treated group).
(TV) was calculated using the formula: TV (mm3) = (3.142 x max (length:width) x min […]
established tumors were removed from two donor mice and dissected into 3x3x3 mm pieces in RPMI 1640 media. […] TV was calculated as TV (mm3) = width2 x length x 0.52.
For the combination studies in the CTC174 PDX model (hormone-independent), established tumors were removed from donor mice and dissected into 3x3x3 mm pieces in RPMI 1640 media. […] TV was calculated using the formula: TV (mm3) = (3.142 x max (length:width) x min (length:width) x min (length:width))/6,000, or (mm3) = width2 x length x 0.52 for the CTC174 study. […]

Assay [3] deals with MCF7 palbociclib-resistant cell lines (PC1, PC6, PC8). Nature of the assay: Cell Titer Glo viability in palbociclib-resistant MCF7 lines. The class given is cell-based, human. Particulars: 7 days. The protocol: B) Viability of CTC174 PDX-derived […]
organoids treated with the indicated drugs for 144 hours. Mean ± standard error of the mean (one experiment using six independent CTC174 organoid lines in three technical replicates). P values were calculated using two-tailed paired t tests of biological replicates. C) Immunoblots of CTC174 PDX tumors and quantification of ER, pS6, S6, or PCNA following treatment. Mean ± standard deviation (n=5). p values were calculated using ANOVA tests. D) Genetic backgrounds for cell lines with putative mechanism of resistance to palbociclib indicated for each cell line. Combination matrix plots […]
palbociclib or abemaciclib at indicated doses for 7 days using Cell Titer Glo viability assay. Values represent measured cell viability normalized to Day 0 (treatment day) and dimethyl sulfoxide control at Day 7. […]
protein levels measured by western blot. […]
dependent kinase 4/6 (inhibitor); Ctrl, control; del, deletion; ER, estrogen receptor; ESR1, estrogen receptor 1 gene; Everol, everolimus; MCL1, induced myeloid leukemia cell differentiation protein; mut, mutation; nd, not determined; Palbo, palbociclib; PCNA, proliferating cell nuclear antigen; PDX, patient-derived xenograft; PgR, progesterone receptor; PIK3CA, phosphatidylinositol 3-kinase subunit α; Rb, retinoblastoma; S6, Ribosomal protein S6; veh, vehicle; wt, wild-type […]
An untreated plate was read on […]
A general note: Cellular ATP, detected with luciferase, serves as a proxy for viable cell number.

SMILES strings stand for the structures.

Consider `CC(=O)c1c(C)c2cnc(Nc3ccc(N4CCNCC4)cn3)nc2n(C2CCCC2)c1=O` [palbociclib], for which the “reduction of relative TV compared with the vehicle” value in the assay on ST3632 ESR1wt PDX is recorded as 0%. As to `C[C@@H]1Cc2c([nH]c3ccccc23)[C@@H](c2c(F)cc(/C=C/C(=O)O)cc2F)N1CC(C)(C)F` [AZD9496], the “estradiol-driven gene expression (ER transcriptional activity)” value in assay [1] is reported as “antagonized all estradiol-driven gene expression”. The cell growth inhibition entry in the assay on CAMA-1 cells is “weaker antiproliferative effects”. Further, the “ER agonism (PgR expression as a marker)” value in assay [2] was “evident in endometrial in vitro and in vivo models”.

In the case of `NC1(C(=O)N[C@@H](CCO)c2ccc(Cl)cc2)CCN(c2nc[nH]c3nccc2-3)CC1` [capivasertib, reference compound], the tumor growth result in the assay on ST1799/HI/PBR PDX is on record as “could not completely arrest tumor growth”. `CCN1CCN(Cc2ccc(Nc3ncc(F)c(-c4cc(F)c5nc(C)n(C(C)C)c5c4)n3)nc2)CC1` [abemaciclib, reference compound]: the “sensitivity of palbociclib-resistant lines” value in assay [3] is on record as “sensitive”. Moreover, the “reduction of relative TV compared with the vehicle” value in the assay with ST3632 ESR1wt PDX came out at 46%.
